The record followed here is PubChem BioAssay (NCI).

Common to all, as to assay: growth of human tumour cells (NCI), 48 h
Experiment [1] has as its system OVCAR-4 ovarian.
The subject of experiment [2] is SK-OV-3 ovarian.
Experiment [3] concerns RPMI-8226 leukemia.
The subject of experiment [4] is RXF 393 renal.
The subject of experiment [5] is SN12C renal.
In experiment [6] the test system is HCC-2998 colon.
The subject of experiment [7] is ACHN renal.
Experiment [8] deals with KM12 colon.
Experiment [9] has as its system A498 renal.
Experiment [10] deals with NCI-H522 lung.

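Results reflect a 48-hour exposure of cells in 96-well plates to compound at five concentrations. Here, GI50 denotes the concentration required for 50% inhibition of growth. TGI is the concentration that stops growth completely.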

`O=C1CCC(N2Cc3cc(CNC(=O)C(F)(F)c4ccc(Cl)cc4)ccc3C2=O)C(=O)N1` (centres undefined): the GI50 was 1.48 µM in [1]; above 100 µM in experiment [2]; above 54.7 µM in [3]; 19 µM in [4]; above 100 µM in experiment [5]; 14 µM in experiment [6]. Also, the GI50 is above 100 µM in experiment [7], 67.1 µM in [8], 8.17 µM in [9] and above 66.1 µM in [10]. Also, the TGI in experiment [1], in experiment [2], in experiment [3], in experiment [4], in experiment [5] and in experiment [6] was above 100 µM throughout. In addition, the TGI in [7], in experiment [8], in experiment [9] and in experiment [10] was above 100 µM throughout.
Take `CC(=O)Nc1ccc(SC#N)c2c(NC(C)=O)cccc12`: the TGI was above 100 µM in experiment [1]; above 100 µM in experiment [2]; 73.9 µM in experiment [3]; above 100 µM in experiment [4]; above 100 µM in experiment [5]; above 100 µM in [6]. Further, the TGI in experiment [7] is above 100 µM; in [8], above 100 µM; in experiment [9], above 100 µM; in [10], above 78.4 µM.
On to `COC(=O)C1CC2CC(=NNC(N)=O)CC2C1` (centres undefined), for which the TGI in experiment [1], in experiment [2], in [3], in experiment [4], in experiment [5] and in experiment [6] was above 100 µM each time. Also, the TGI in experiment [7], in [8], in experiment [9] and in [10] was above 100 µM each time.
In the case of `CN[C@@H](C)C(=O)N[C@H](C(=O)N1CCC[C@H]1C(=O)Nc1sc(-c2ncco2)nc1-c1ccccc1)C1CCCCC1`, the GI50 in experiment [1] is 3.26 µM; in [2], 0.0336 µM; in experiment [3], 25.1 µM; in [4] it was 8.51 µM; in experiment [5] it was 38.9 µM; in experiment [6] it was 25.7 µM. In addition, the GI50 in experiment [7] is 19.3 µM; in [8], 43.3 µM; in experiment [9], 26.6 µM; in experiment [10], 10.2 µM. Further, the TGI in [1] is above 100 µM; in experiment [2] it was 0.299 µM; in experiment [3], above 89.9 µM; in experiment [4] it was 32.3 µM; in experiment [5], above 71.9 µM; in [6], 65.7 µM. For the same compound, the TGI in experiment [7] is above 54.9 µM; in experiment [8] it was above 100 µM; in experiment [9], above 88 µM; in [10], 28.1 µM.
With `O=S(=O)(c1ccc(Cl)cc1)C(Cl)(Cl)Cl`, the GI50 in experiment [1] is 2.23 µM; in [2] it was 14 µM; in [3], 3.35 µM; in [4] it was 1.47 µM; in [5], 3.54 µM; in experiment [6], 1.42 µM. Further, the GI50 is 1.43 µM in [7], 3.27 µM in [8], 1.15 µM in experiment [9] and 2.95 µM in experiment [10]. Moreover, the TGI was above 63.3 µM in experiment [1]; 67 µM in experiment [2]; above 52.9 µM in [3]; 8.91 µM in experiment [4]; 30.3 µM in experiment [5]; 5.87 µM in experiment [6]. Also, the TGI in [7] is above 100 µM; in [8] it was 13.9 µM; in [9], 13 µM; in experiment [10], 21 µM.
As to `COc1cc2c(cc1OCCCn1c(-c3ccccn3)nc3ccccc31)N=C[C@@H]1CCCN1C2=O`, the GI50 in experiment [1] was 3.39 µM; in experiment [2], 4.23 µM; in experiment [3], 8.8 µM; in experiment [4], 0.571 µM; in experiment [5] it was 3.05 µM; in experiment [6], 1.13 µM. In addition, the GI50 in experiment [7] is 2.23 µM; in experiment [8] it was 1.9 µM; in experiment [9] it was 3.96 µM; in experiment [10], 1.76 µM. Besides, the TGI was above 42.6 µM in experiment [1]; 19.6 µM in experiment [2]; above 20.8 µM in [3]; 3.64 µM in [4]; 15.1 µM in [5]; 2.65 µM in experiment [6]. Also, the TGI in experiment [7] was found to be 6.28 µM; in [8], 4.1 µM; in experiment [9], 14.5 µM; in experiment [10], 6.81 µM.
Regarding `O=C1NC(=O)C2C(=O)NC(=O)C1C2c1c(Cl)cccc1Cl` (centres undefined), the TGI was above 100 µM in experiment [1]; above 100 µM in experiment [2]; above 67.2 µM in [3]; 98.1 µM in [4]; above 100 µM in [5]; above 100 µM in [6]. Also, the TGI in [7], in experiment [8], in experiment [9] and in [10] was above 100 µM in each case.
In the case of `O=c1[nH]c(=O)n(C2CC(O)C(COP(=O)(OCc3ccc([N+](=O)[O-])o3)N(CCCCCl)CC(O)CO)O2)cc1F` (centres undefined), the GI50 was above 100 µM in experiment [1]; above 100 µM in experiment [2]; below 0.01 µM in experiment [3]; 0.0243 µM in experiment [4]; below 0.0496 µM in experiment [5]; 0.401 µM in experiment [6]. Further, the GI50 is below 0.0216 µM in experiment [7], 1.87 µM in experiment [8], 0.138 µM in [9] and 0.985 µM in experiment [10]. Moreover, the TGI is above 100 µM in experiment [1]; above 100 µM in [2]; above 49.8 µM in experiment [3]; 3.6 µM in experiment [4]; above 100 µM in experiment [6]; 12.6 µM in experiment [7]. The TGI is above 100 µM in experiment [8], 39.1 µM in experiment [9] and 77.4 µM in experiment [10].
With `COC1C=COC2(C)Oc3c(C)c(O)c4c(c3C2=O)/C(=N/C2CCC(O)OC2C)C=C(NC(=O)/C(C)=C\C(=O)C2CC2C(O)C(C)C(O)C(C)C(OC(C)=O)C1C)C4=O` (centres undefined), the TGI is 10.6 µM in experiment [1]; 20.1 µM in [2]; 5.74 µM in experiment [3]; 3.45 µM in [4]; 3.24 µM in experiment [5]; 6.88 µM in experiment [6]. The TGI in [7] came out at 6.68 µM; in [8] it was 9.48 µM; in [9], 8.36 µM; in [10], 2.79 µM.
